Measurements: patent US6727227B1, “Tetrapetide revealing geroprotective effect, pharmacological substance on its basis, and the method of its application” (Obschestvo S Ogranichennoi Otvetstven-Nostiju “Klinika …, priority 2002, dated 2004)
Marks after values point to notes of the source that are not given here. Residues, ends and D or L forms follow the SMILES beside them.

Key:
[1] = system: Drosophila melanogaster of LA strain; assay: Content of lipid peroxide oxidation products (conjugated hydro-peroxides), LA strain; assay type: in vivo
Procedure: The impact produced by L-Ala-L-Glu-L-Asp-Gly tetrapeptide (SEQ ID NO: 1) on catalase activity, the content of the products of lipid peroxide oxidation (LPO), life span, and the ageing rate were studied in Drosophila melanogaster of LA strain.
L-Ala-L-Glu-L-Asp-Gly tetrapeptide (SEQ ID NO: 1) was applied in the larvae of the 3rd age in dose 0.00001% of the culture medium weight, which constituted approximately 0.015 mg/100 ml. Catalase activity was estimated by generally accepted methods in the homogenates of adult 14 days old flies. The experiment was carried out with a subsequent repetition.
Regression and dispersal analyses served as the basic technique of statistic processing. The authenticity of differences was confirmed by the method of minimal relevant diversity.

catalase = assay: Catalase activity in homogenates of 7-day old flies of EA strain; assay type: in vivo, Drosophila melanogaster of EA strain
Procedure: (§1) Drosophila melanogaster of EA strain served as a model for studying the influence of L-Ala-L-Glu-L-Asp-Gly tetrapeptide (SEQ ID NO: 1) on catalase activity, tissue chemoluminescence, and life span.
(§2) L-Ala-L-Glu-L-Asp-Gly tetrapeptide (SEQ ID NO: 1) was applied in the larvae of the 3rd age in dose 0.00001% of the culture medium weight, which constituted approximately 0.015 mg/100 ml. Catalase activity and the intensity of chemoluminescence were estimated in the homogenates of adult 7-day old flies by generally accepted methods. The experiment was conducted with a subsequent 5 repetition.
(§3) Regression and dispersal analyses served as the basic technique of statistic processing.

[2] = system: Drosophila melanogaster of EA strain; assay: Chemoluminescence intensity in homogenates of 7-day old flies of EA strain; assay type: in vivo
Procedure: as §1, §2, §3

gastric EC-cells = assay: Extra-pineal synthesis of melatonin: enteroendocrine and serotonin-positive cell density in stomach after epiphysectomy; assay type: in vivo, male Wistar rats; settings: for NEND/1 mm^2 (density of entero-endocrine cells), Fundal / NEND/1 mm^2 (density of entero-endocrine cells), Pyloric / Nser/1 mm^2 (density of serotonin-positive cells), Pyloric: 0.5 μg subcutaneously 10 days
Procedure: The research was carried out on male Wistar rats weighing 130-140 g. The total number of the animals (23) was divided into 5 groups. The 1st group (control) included intact animals. The animals of groups 2-5 underwent epiphysectomy (EE). In 3 weeks after the surgery (on the 21st day) the animals of the 2nd and 3rd groups were subcutaneously injected with sodium chloride in dose 0.5 ml for the next 10 days. The animals of groups 4 and 5 were administered with L-Ala-L-Glu-L-Asp-Gly tetrapeptide (SEQ ID NO: 1) in dose 0.5 μg according to the same scheme.
Slaughtering of the animals and isolation of their organs were conducted from 10 a.m. to 12 noon by daylight with the use of Nembutal anaesthesia (50 mg/kg). The animals of groups 1, 2 and 4 were slaughtered in 3 days upon the final drug administration (on the 33rd day after the operation and the onset of the experiment), while the animals of groups 3 and 5-in 12 days (on the 42nd day after epiphysectomy). Examined were the main organs of the diffuse neuroendocrine system (DNES): stomach, thyroid gland, and pancreas.
The surgery—epiphysectomy—was conducted under ether anaesthesia according to the devised technique. A 1-1.5 cm long incision was made along the central line of the head. Upon the uncovering of the scull cap an aperture was drilled over the sinus confluence point by means of a hollow 0.5 cm-diameter auger, which was manufactured of a metal tube especially for the experiment. The epiphysis was extracted by means of ophthalmic forceps through the opening in the cranium. The trepanation aperture was covered with an osteal fragment. The skin incision was sewn with silk threads.
Fragments of the extracted organs were fixed for 24 hours in Buen sour liquid for optic microscopy and according to Karnovsky for electron microscopy. Material dehydration and filling it in with paraffin for optic microscopy, as well as epone mixture for ultra-structural examination were prepared according to generally accepted techniques. Paraffin sections (7 μm) were placed on a microscope slide covered with a poly-L-lysine film (Sigma). Ultra-thin sections (100 nm) prepared on LKB-7A microtome (LKB) were contrasted with uranyl acetate and plumbum citrate.
Histological and immunohistochemical examinations were carried out with a Jenamed-2 microscope (Zeiss). Electron-microscopic examination was conducted with a electronic JEM-100S microscope (JEOL).
For staining hematoxyline-eosin was applied. The total population of APUD-cytes in the pyloric and fundal stomach sections was determined according to Grimelius' histochemical silvering method (25).
Immunohistochemical exposure of enterochromophine-cells (EC-cells) was conducted by applying uniclonic antibodies of mice to serotonin (Dako, 1:15 titre). The uniclonic antibodies were identified according to avidin-biotin-peroxidase (ABP) method (Vectastain kit) in order to measure immune serum globulins of mice.
The quantitative studies were carried out by means of computer analysis system of microscopic imprints (Imstar) with the use of Morphostar and Colquant (Imstar) applied licensed computer programmes, in accordance with the basic principles of stereology and morphometry (26).
The quantitative density of enteroendocrine (END) (NEND/1 mm^2) and serotonin-positive cells (Nser/1 mm^2) was estimated in 10 visual fields. The test area (S) constituted 5 mm^2.
For the statistical processing of the acquired data the non-parametric U-criterion by Mann/Whitney was applied.

[3] = system: blood anti-oxidation defence indices; assay: Blood anti-oxidation defence indices in patients with age-related pathology; assay type: in vivo; settings: 10 μg intramuscularly daily for 10 days
Procedure: The studied pharmacological substance was administered to 14 patients (34 to 69 years old) with age-related pathology (hypertension disease, ischemic heart disease, chronic gastritis, non-insulin-dependent diabetes mellitus) and reduction of the anti-oxidation defence indices in blood.
The substance containing L-Ala-L-Glu-L-Asp-Gly tetrapeptide (SEQ ID NO: 1) was administered intramuscularly in the form of an injection solution in a single daily dose of 10 μg per injection for 10 days.

[4] = system: patients suffering aspirin bronchial asthma; assay: Clinical application in patients suffering aspirin bronchial asthma; assay type: in vivo
[5] = epiphysectomised rats, 3rd day upon the end of drug administration
[6] = epiphysectomised rats, 12th day upon the end of drug administration
[7] = 10 μg intramuscularly daily for 10 days

C[C@H](N)C(=O)N[C@@H](CCC(=O)O)C(=O)N[C@@H](CC(=O)O)C(=O)NCC(=O)O [L-Ala-L-Glu-L-Asp-Gly tetrapeptide, L-alanyl-L-glutamyl-L-aspartyl-glycine] (H-AEDG-OH)
Content of conjugated hydro-peroxides ([1]; females): 1.290* nmole/g of tissue | Content of conjugated hydro-peroxides ([1]; males): 1.202 nmole/g of tissue | Specific activity of catalase (catalase; females): 82.78 ± 2.957 μmole H2O2/mg of protein per min. | Specific activity of catalase (catalase; males): 100.39 ± 3.807 μmole H2O2/mg of protein per min. | Chemoluminescence intensity ([2]; females): 4.61 ± 0.395 conv. unit/mg of protein per p | Chemoluminescence intensity ([2]; males): 4.93 ± 0.109 conv. unit/mg of protein per p | Extra-pineal synthesis of serotonin and melatonin in gastric EC-cells (gastric EC-cells; epiphysectomised rats): promotes the extra-pineal synthesis of serotonin and melatonin | NEND/1 mm^2 (density of entero-endocrine cells), Fundal (gastric EC-cells; [5]): 64 ± 5 /1 mm^2 | NEND/1 mm^2 (density of entero-endocrine cells), Pyloric (gastric EC-cells; [5]): 21 ± 1 /1 mm^2 | Nser/1 mm^2 (density of serotonin-positive cells), Pyloric (gastric EC-cells; [5]): 26 ± 2 /1 mm^2 | NEND/1 mm^2 (density of entero-endocrine cells), Fundal (gastric EC-cells; [6]): 47 ± 9 /1 mm^2 | NEND/1 mm^2 (density of entero-endocrine cells), Pyloric (gastric EC-cells; [6]): 19 ± 1 /1 mm^2 | Nser/1 mm^2 (density of serotonin-positive cells), Pyloric (gastric EC-cells; [6]): 26 ± 3 /1 mm^2 | Effect on the epiphysectomy impact on DNES cells (gastric EC-cells; within 3 days upon the end of administration, maintained for 12 days): complete suppression of the epiphysectomy impact | Activity of superoxide dismutase, After treatment ([3]; before treatment 0.26): 0.61* conv. unit/mg of protein | Products of spontaneous lipid peroxide oxidation: Schiff bases, After treatment ([3]; before treatment 4.6 ± 0.3): 2.9 ± 0.2 μM/l | Products of spontaneous lipid peroxide oxidation: conjugated hydroperoxides, After treatment ([3]; before treatment 7.3 ± 0.6): 2.5 ± 0.2 μM/l | Clinical state by the end of the treatment [4, 7]: improvement in clinical state by the end of the treatment was observed in the overwhelming majority of patients | External respiratory function (VBC, MVexhR, FEV1, TV/TLC) immediately after treatment [4, 7]: did not reveal any essential alterations | Reaction to Berotek on the level of distal bronchi [4, 7]: showed an improvement | Excretion of 6-sulfatoxymelatonin in urine ([4]; at night and in the daytime): increased
